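Test compounds were applied to cells in 96-well plates for 48 hours at 5 doses. GI50 marks 50% less growth.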 Activity calls are given as the source filed them. Cut-off read from the data, not from the text of the source: active = GI50 up to about 1.1 µM and inactive = higher.
How the values were obtained:
Assay in all cases: NCI-60 cell line screen, 48 h
786-0 = system: 786-0
A498 = system: A498
A549 = system: A549
ACHN = system: ACHN
BT-549 = system: BT-549
CAKI-1 = system: CAKI-1
CCRF-CEM = system: CCRF-CEM
COLO 205 = system: COLO 205
DU-145 = system: DU-145
EKVX = system: EKVX
HCC 2998 = system: HCC 2998
HCT-116 = system: HCT-116
HCT-15 = system: HCT-15
HL-60 = system: HL-60
HOP-62 = system: HOP-62
HOP-92 = system: HOP-92
HT-29 = system: HT-29
Hs-578T = system: Hs-578T
IGROV-1 = system: IGROV-1
K562 = system: K562
KM12 = system: KM12
LOX IMVI = system: LOX IMVI
M14 = system: M14
MCF7 = system: MCF7
MDA-MB-435 = system: MDA-MB-435
MDA-N = system: MDA-N
MOLT-4 = system: MOLT-4
Malme-3M = system: Malme-3M
NCI-H226 = system: NCI-H226
NCI-H23 = system: NCI-H23
NCI-H460 = system: NCI-H460
NCI-H522 = system: NCI-H522
NCI/ADR-RES = system: NCI/ADR-RES
OVCAR-3 = system: OVCAR-3
OVCAR-4 = system: OVCAR-4
OVCAR-5 = system: OVCAR-5
OVCAR-8 = system: OVCAR-8
PC-3 = system: PC-3
RPMI-8226 = system: RPMI-8226
RXF 393 = system: RXF 393
SF-268 = system: SF-268
SF-295 = system: SF-295
SF-539 = system: SF-539
SK-MEL-28 = system: SK-MEL-28
SK-MEL-2 = system: SK-MEL-2
SK-MEL-5 = system: SK-MEL-5
SK-OV-3 = system: SK-OV-3
SN12C = system: SN12C
SNB-19 = system: SNB-19
SNB-75 = system: SNB-75
SR = system: SR
SW-620 = system: SW-620
T47D = system: T47D
TK-10 = system: TK-10
U-251 = system: U-251
UACC-257 = system: UACC-257
UACC-62 = system: UACC-62
UO-31 = system: UO-31
MDA-MB-231 = system: MDA-MB-231

`COC(=O)C1SC(N(C)c2ccccc2)=NC12c1ccccc1Nc1ccccc12` (centres undefined) was tested. Which GI50 (786-0) did it give?
The GI50 was 26.1 µM (inactive).

What about the GI50 (A498) of the same compound?
Its GI50 is 20.7 µM (inactive).

And the GI50 (A549)?
Its GI50 is 20.3 µM (inactive).

What about the GI50 (ACHN) of the same compound?
The GI50 was 31 µM (inactive).

What about the GI50 (BT-549) of the same compound?
The GI50 was 15.9 µM (inactive).

What about the GI50 (CAKI-1) of the same compound?
Its GI50 is 23.8 µM (inactive).

And the GI50 (CCRF-CEM)?
Its GI50 is 6.71 µM (inactive).

And the GI50 (COLO 205)?
The GI50 was 14.5 µM (inactive).

What about the GI50 (DU-145) of the same compound?
The GI50 was 25.7 µM (inactive).

And the GI50 (EKVX)?
Its GI50 is 22.8 µM (inactive).

What about the GI50 (HCC 2998) of the same compound?
The GI50 was 20.5 µM (inactive).

What about the GI50 (HCT-116) of the same compound?
The GI50 was 23.3 µM (inactive).

And the GI50 (HCT-15)?
The GI50 was 13.6 µM.

What about the GI50 (HL-60) of the same compound?
The GI50 was 12.7 µM (inactive).

What about the GI50 (HOP-62) of the same compound?
The GI50 was 33.8 µM (inactive).

And the GI50 (HOP-92)?
The GI50 was 14.1 µM (inactive).

What about the GI50 (HT-29) of the same compound?
Its GI50 is 19.3 µM (inactive).

And the GI50 (Hs-578T)?
Its GI50 is 14.5 µM (inactive).

What about the GI50 (IGROV-1) of the same compound?
Its GI50 is 14.2 µM (inactive).

What about the GI50 (K562) of the same compound?
Its GI50 is 15.1 µM (inactive).

And the GI50 (KM12)?
Its GI50 is 18.3 µM (inactive).

What about the GI50 (LOX IMVI) of the same compound?
The GI50 was 19.1 µM (inactive).

And the GI50 (M14)?
Its GI50 is 19.5 µM (inactive).

And the GI50 (MCF7)?
The GI50 was 22 µM (inactive).

What about the GI50 (MDA-MB-435) of the same compound?
The GI50 was 17.6 µM (inactive).

What about the GI50 (MDA-N) of the same compound?
Its GI50 is 23.1 µM (inactive).

And the GI50 (MOLT-4)?
The GI50 was 7.31 µM (inactive).

What about the GI50 (Malme-3M) of the same compound?
Its GI50 is 15.8 µM (inactive).

And the GI50 (NCI-H226)?
Its GI50 is 20.7 µM (inactive).

What about the GI50 (NCI-H23) of the same compound?
Its GI50 is 13.6 µM (inactive).

And the GI50 (NCI-H460)?
Its GI50 is 10.8 µM (inactive).

What about the GI50 (NCI-H522) of the same compound?
The GI50 was 13.4 µM (inactive).

And the GI50 (NCI/ADR-RES)?
Its GI50 is 13.5 µM (inactive).

What about the GI50 (OVCAR-3) of the same compound?
The GI50 was 11 µM (inactive).

And the GI50 (OVCAR-4)?
The GI50 was 19.7 µM (inactive).

And the GI50 (OVCAR-5)?
The GI50 was 25.3 µM (inactive).

And the GI50 (OVCAR-8)?
The GI50 was 8.89 µM (inactive).

What about the GI50 (PC-3) of the same compound?
The GI50 was 16.3 µM (inactive).

And the GI50 (RPMI-8226)?
The GI50 was 3.08 µM (inactive).

What about the GI50 (RXF 393) of the same compound?
The GI50 was 31.3 µM (inactive).

And the GI50 (SF-268)?
Its GI50 is 21 µM (inactive).

What about the GI50 (SF-295) of the same compound?
The GI50 was 17.2 µM (inactive).

What about the GI50 (SF-539) of the same compound?
The GI50 was 18.4 µM (inactive).

And the GI50 (SK-MEL-28)?
Its GI50 is 19.2 µM (inactive).

What about the GI50 (SK-MEL-2) of the same compound?
Its GI50 is 15.5 µM (inactive).

What about the GI50 (SK-MEL-5) of the same compound?
The GI50 was 12.9 µM (inactive).

What about the GI50 (SK-OV-3) of the same compound?
Its GI50 is 39.8 µM (inactive).

What about the GI50 (SN12C) of the same compound?
The GI50 was 22.4 µM (inactive).

What about the GI50 (SNB-19) of the same compound?
Its GI50 is 23.9 µM (inactive).

What about the GI50 (SNB-75) of the same compound?
The GI50 was 25.8 µM (inactive).

What about the GI50 (SR) of the same compound?
The GI50 was 15.3 µM (inactive).

What about the GI50 (SW-620) of the same compound?
The GI50 was 27.9 µM (inactive).

What about the GI50 (T47D) of the same compound?
Its GI50 is 15.7 µM (inactive).

And the GI50 (TK-10)?
The GI50 was 29.8 µM (inactive).

What about the GI50 (U-251) of the same compound?
The GI50 was 27.5 µM (inactive).

And the GI50 (UACC-257)?
The GI50 was 25.2 µM (inactive).

And the GI50 (UACC-62)?
The GI50 was 13.6 µM (inactive).

And the GI50 (UO-31)?
The GI50 was 22.5 µM (inactive).

Which results are given for `c1ccc(C2=Nc3nc4ccccc4n3C(c3ccccc3)C2)cc1` (centres undefined)?
GI50 (786-0): > 100 µM (inactive); GI50 (A498): > 100 µM (inactive); GI50 (A549): > 100 µM (inactive); GI50 (ACHN): > 100 µM (inactive); GI50 (BT-549): > 100 µM (inactive); GI50 (CAKI-1): > 100 µM (inactive); GI50 (CCRF-CEM): > 100 µM (inactive); GI50 (COLO 205): > 100 µM (inactive); GI50 (EKVX): > 100 µM (inactive); GI50 (HCT-116): > 100 µM (inactive); GI50 (HCT-15): > 100 µM; GI50 (HL-60): > 100 µM (inactive); GI50 (HOP-62): 36 µM (inactive); GI50 (HOP-92): 24.6 µM (inactive); GI50 (HT-29): > 100 µM (inactive); GI50 (Hs-578T): 45.5 µM (inactive); GI50 (IGROV-1): > 100 µM (inactive); GI50 (K562): > 100 µM (inactive); GI50 (KM12): > 100 µM (inactive); GI50 (LOX IMVI): > 100 µM (inactive); GI50 (M14): > 100 µM (inactive); GI50 (MCF7): > 100 µM (inactive); GI50 (MDA-MB-231): 70.6 µM (inactive); GI50 (MDA-MB-435): 36 µM (inactive); GI50 (MDA-N): > 100 µM (inactive); GI50 (MOLT-4): > 100 µM (inactive); GI50 (Malme-3M): > 100 µM (inactive); GI50 (NCI-H226): > 100 µM (inactive); GI50 (NCI-H23): > 100 µM (inactive); GI50 (NCI-H460): > 100 µM (inactive); GI50 (NCI-H522): > 100 µM (inactive); GI50 (NCI/ADR-RES): > 100 µM (inactive); GI50 (OVCAR-3): > 100 µM (inactive); GI50 (OVCAR-4): > 100 µM (inactive); GI50 (OVCAR-5): > 100 µM (inactive); GI50 (OVCAR-8): > 100 µM (inactive); GI50 (PC-3): > 100 µM (inactive); GI50 (RPMI-8226): > 100 µM (inactive); GI50 (RXF 393): 41 µM (inactive); GI50 (SF-268): > 100 µM (inactive); GI50 (SF-295): 79.8 µM (inactive); GI50 (SF-539): > 100 µM (inactive); GI50 (SK-MEL-28): > 100 µM (inactive); GI50 (SK-MEL-2): > 100 µM (inactive); GI50 (SK-MEL-5): > 100 µM (inactive); GI50 (SK-OV-3): > 100 µM (inactive); GI50 (SNB-19): 44.8 µM (inactive); GI50 (SNB-75): 27.9 µM (inactive); GI50 (SR): > 100 µM (inactive); GI50 (SW-620): > 100 µM (inactive); GI50 (T47D): > 100 µM (inactive); GI50 (TK-10): > 100 µM (inactive); GI50 (U-251): > 100 µM (inactive); GI50 (UACC-257): > 100 µM (inactive); GI50 (UACC-62): > 100 µM (inactive); GI50 (UO-31): > 100 µM (inactive)
